Laboratory results: patent US8551978B2 (Theravance, Inc., priority 2009, dated 2013)
pEC50, pKi: −log10 of the molar value. Where a name gives a salt, the structure may show the parent alone. Read-outs that look alike come from different tables or passages of the source.

Legend:
hβ2 adrenergic receptor = hβ2 adrenergic receptor (Homo sapiens (Human), UniProt P07550); assay: Assay for determining adrenergic receptor agonist potency (cAMP Flashplate, HEK-293 cells); type: cell-based; conditions: data rounded to nearest 1 nM
[1] = test system: MCh-induced bronchoconstriction; assay: Einthoven assay: bronchoprotection against methacholine (MCh)-induced bronchoconstriction; type: in vivo, rat; conditions: for inhibition in vivo at 0.1 mg: inhaled or nasal, read-out: Broncho. at 24 h
How it was run: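 Male Sprague-Dawley rats received 100 μg compound (unless stated) or water vehicle by 10-min inhalation. At set times, anesthetized, ventilated rats were challenged with IV MCh at 40 and 80 μg/kg (2.5-min infusions). Ventilation-pressure rise is expressed as % inhibition versus vehicle controls.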

hM3 muscarinic receptor = hM3 muscarinic receptor (Homo sapiens (Human), UniProt P20309); assay: Radioligand binding assay for muscarinic receptors ([3H]-NMS displacement, CHO cell membranes)
How it was run: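 [3H]-NMS displacement used homogenized CHO membranes, with test compounds at final concentrations of […]. Plates were incubated 6 hours at 37 °C, then filtered and read by liquid scintillation counting. A one-site competition fit gave values that were converted to Ki.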

[2] = rat, 100 μg by inhalation, 24 h after administration
[3] = hM3 Muscarinic Receptor Binding, data rounded to nearest 0.1 nM

Sequence of hβ2 adrenergic receptor (P07550 whole entry): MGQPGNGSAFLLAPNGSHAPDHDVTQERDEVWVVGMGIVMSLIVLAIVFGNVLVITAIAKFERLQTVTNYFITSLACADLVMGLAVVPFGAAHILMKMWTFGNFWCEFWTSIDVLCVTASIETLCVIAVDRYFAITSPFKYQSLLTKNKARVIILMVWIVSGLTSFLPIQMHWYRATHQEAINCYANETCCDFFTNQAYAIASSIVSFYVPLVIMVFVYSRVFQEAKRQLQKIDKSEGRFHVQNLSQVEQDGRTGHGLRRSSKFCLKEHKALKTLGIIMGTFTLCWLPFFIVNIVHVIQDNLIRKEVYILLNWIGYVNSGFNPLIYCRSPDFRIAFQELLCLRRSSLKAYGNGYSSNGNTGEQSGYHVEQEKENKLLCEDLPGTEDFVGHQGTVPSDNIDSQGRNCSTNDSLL
Sequence of hM3 muscarinic receptor (P20309 whole entry): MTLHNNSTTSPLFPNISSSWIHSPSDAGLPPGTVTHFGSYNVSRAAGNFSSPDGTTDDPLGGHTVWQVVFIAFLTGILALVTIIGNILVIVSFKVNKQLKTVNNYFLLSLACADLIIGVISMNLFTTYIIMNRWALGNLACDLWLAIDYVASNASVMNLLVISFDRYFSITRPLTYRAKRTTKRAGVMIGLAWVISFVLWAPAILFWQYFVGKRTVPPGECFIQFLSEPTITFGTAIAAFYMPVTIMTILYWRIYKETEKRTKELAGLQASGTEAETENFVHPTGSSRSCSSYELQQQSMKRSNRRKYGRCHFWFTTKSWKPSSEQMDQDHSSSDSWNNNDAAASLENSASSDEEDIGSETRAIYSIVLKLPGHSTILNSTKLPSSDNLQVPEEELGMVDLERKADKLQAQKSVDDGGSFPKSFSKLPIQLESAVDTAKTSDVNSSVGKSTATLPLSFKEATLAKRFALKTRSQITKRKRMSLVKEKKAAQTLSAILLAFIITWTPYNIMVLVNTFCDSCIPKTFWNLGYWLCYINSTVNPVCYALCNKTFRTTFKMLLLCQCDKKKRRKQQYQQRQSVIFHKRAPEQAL

SMILES | pEC50 (hβ2 adrenergic receptor) | inhibition in vivo at 0.1 mg ([1]; Rattus norvegicus, 24 h) | pKi (hM3 muscarinic receptor) | Broncho. at 24 h [1, 2] | inhibition in vivo at 0.1 mg [1, 2] | pKi (hM3 muscarinic receptor; [3])
CN(CCCC(=O)Nc1cccc(CCNC[C@H](O)c2ccc(O)c3[nH]c(=O)ccc23)c1)C(=O)CCN1CCC(OC(=O)Nc2ccccc2-c2ccccc2)CC1 [Compound I-7, Biphenyl-2-ylcarbamic Acid 1-(2-{[3-(3-{2-[(R)-2-Hydroxy-2-(8-hydroxy-2-oxo-1,2-dihydroquinolin-5-yl)ethylamino]ethyl}phenylcarbamoyl)-propyl]methylcarbamoyl}ethyl)piperidin-4-yl Ester Ditrifluoroacetic Acid Salt] | 9.00 | > 30% | 10.00 |  |  | 
CN(C(=O)CCN1CCC(OC(=O)Nc2ccccc2-c2ccccc2)CC1)c1cccc(C(=O)Nc2cccc(CCNC[C@H](O)c3ccc(O)c4[nH]c(=O)ccc34)c2)c1 [Compound I-32] | 9.00 |  | 10.00 | No |  | 
CC(Cc1cccc(CC(=O)Nc2cccc(N(C)C(=O)CCN3CCC(OC(=O)Nc4ccccc4-c4ccccc4)CC3)c2)c1)NC[C@H](O)c1ccc(O)c2[nH]c(=O)ccc12 (stereo partly drawn) [Compound I-52] | 9.00 |  | 9.70 | No |  | 
C[C@H](Cc1ccc(CNC(=O)c2cccc(N(C)C(=O)CCN3CCC(OC(=O)Nc4ccccc4-c4ccccc4)CC3)c2)cc1)NC[C@H](O)c1ccc(O)c2[nH]c(=O)ccc12 [Compound I-48] | 9.00 |  | 9.52 |  | > 30% | 
COc1ccc(CC(C)NC[C@H](O)c2ccc(O)c3[nH]c(=O)ccc23)cc1CC(=O)NCc1ccc(N(C)C(=O)CCN2CCC(OC(=O)Nc3ccccc3-c3ccccc3)CC2)cc1 (stereo partly drawn) [Compound I-94] | 9.00 |  |  |  | > 30% | 10.00
CN(CCCC(=O)Nc1ccc(CCNC[C@H](O)c2ccc(O)c3[nH]c(=O)ccc23)cc1)C(=O)CCN1CCC(OC(=O)Nc2ccccc2-c2ccccc2)CC1 [Compound I-8] | 9.00 |  | 10.00 |  | > 30% | 
CC(Cc1ccc(CCNC(=O)Cc2ccc(N(C)C(=O)CCN3CCC(OC(=O)Nc4ccccc4-c4ccccc4)CC3)cc2)cc1)NC[C@H](O)c1ccc(O)c2[nH]c(=O)ccc12 (stereo partly drawn) [Compound I-88] | 9.00 |  | 10.00 |  | > 30% | 
Cc1cc(NC(=O)CCCN(C)C(=O)CCN2CCC(OC(=O)Nc3ccccc3-c3ccccc3)CC2)c(C)cc1CNC[C@H](O)c1ccc(O)c2[nH]c(=O)ccc12 [Compound I-5] | 9.00 |  | 10.00 |  | > 30% | 
CC(Cc1ccc(CNC(=O)Cc2ccc(N(C)C(=O)CCN3CCC(OC(=O)Nc4ccccc4-c4ccccc4)CC3)cc2)cc1)NC[C@H](O)c1ccc(O)c2[nH]c(=O)ccc12 (stereo partly drawn) [Compound I-67] | 9.00 |  | 10.00 |  | > 30% | 
Cc1ccc(C(=O)Nc2cccc(CCNC[C@H](O)c3ccc(O)c4[nH]c(=O)ccc34)c2)cc1N(C)C(=O)CCN1CCC(OC(=O)Nc2ccccc2-c2ccccc2)CC1 [Compound I-33] | 9.00 |  | 9.70 | No |  | 
C[C@@H](Cc1ccc(CCNC(=O)Cc2ccc(N(C)C(=O)CCN3CCC(OC(=O)Nc4ccccc4-c4ccccc4)CC3)cc2)cc1)NC[C@H](O)c1ccc(O)c2[nH]c(=O)ccc12 [Compound I-89] | 9.00 |  | 10.00 |  | > 30% | 
Cc1cc(NC(=O)CCCCN(C)C(=O)CCN2CCC(OC(=O)Nc3ccccc3-c3ccccc3)CC2)c(C)cc1CNC[C@H](O)c1ccc(O)c2[nH]c(=O)ccc12 [Compound I-18, Biphenyl-2-ylcarbamic Acid 1-(2-{[4-(4-{[(R)-2-Hydroxy-2-(8-hydroxy-2-oxo-1,2-dihydroquinolin-5-yl)ethylamino]methyl}-2,5-dimethylphenylcarbamoyl)butyl]methylcarbamoyl}ethyl)piperidin-4-yl Ester Ditrifluoroacetic Acid Salt] | 9.00 | > 30% | 10.00 |  |  | 
C[C@H](Cc1cccc(CCC(=O)NCc2ccc(N(C)C(=O)CCN3CCC(OC(=O)Nc4ccccc4-c4ccccc4)CC3)cc2)c1)NC[C@H](O)c1ccc(O)c2[nH]c(=O)ccc12 [Compound I-92] | 9.00 |  | 9.70 |  | > 30% | 
CN(C(=O)CCN1CCC(OC(=O)Nc2ccccc2-c2ccccc2)CC1)c1ccc(CC(=O)NCc2ccc(CCNC[C@H](O)c3ccc(O)c4[nH]c(=O)ccc34)cc2)cc1 [Compound I-64] | 9.00 |  |  | No |  | 9.52
CC(Cc1cccc(NC(=O)c2cccc(N(C)C(=O)CCN3CCC(OC(=O)Nc4ccccc4-c4ccccc4)CC3)c2)c1)NC[C@H](O)c1ccc(O)c2[nH]c(=O)ccc12 (stereo partly drawn) [Compound I-36] | 9.00 |  | 9.70 |  | > 30% | 
C[C@@H](Cc1cccc(CC(=O)NCc2ccc(N(C)C(=O)CCN3CCC(OC(=O)Nc4ccccc4-c4ccccc4)CC3)cc2)c1)NC[C@H](O)c1ccc(O)c2[nH]c(=O)ccc12 [Compound I-79] | 9.00 |  | 10.00 | No |  | 
CC(Cc1ccc(CNC(=O)Cc2ccc(N(C)C(=O)CCN3CCC(OC(=O)Nc4ccccc4-c4ccccc4)CC3)cc2)cc1)NC[C@H](O)c1ccc(O)c2[nH]c(=O)ccc12 (stereo partly drawn) [Compound I-66] | 9.00 |  | 9.70 | No |  | 
COc1cc(NC(=O)CCCN(C)C(=O)CCN2CCC(OC(=O)Nc3ccccc3-c3ccccc3)CC2)c(Cl)cc1CNC[C@H](O)c1ccc(O)c2[nH]c(=O)ccc12 [Compound I-6] | 9.00 |  |  |  | > 30% | 10.00
COc1cc(CNC[C@H](O)c2ccc(O)c3[nH]c(=O)ccc23)ccc1NC(=O)CCCN(C)C(=O)CCN1CCC(OC(=O)Nc2ccccc2-c2ccccc2)CC1 [Compound I-3] | 9.00 |  |  |  | > 30% | 10.00
C[C@@H](Cc1cccc(CC(=O)NCCCCN(C)C(=O)CCN2CCC(OC(=O)Nc3ccccc3-c3ccccc3)CC2)c1)NC[C@H](O)c1ccc(O)c2[nH]c(=O)ccc12 [Compound I-24] | 9.00 |  | 10.00 |  | > 30% | 
C[C@@H](Cc1cccc(CCNC(=O)c2ccc(N(C)C(=O)CCN3CCC(OC(=O)Nc4ccccc4-c4ccccc4)CC3)cc2)c1)NC[C@H](O)c1ccc(O)c2[nH]c(=O)ccc12 [Compound I-56] | 9.00 |  |  | No |  | 9.70
C[C@H](Cc1cccc(CC(=O)NCCCCN(C)C(=O)CCN2CCC(OC(=O)Nc3ccccc3-c3ccccc3)CC2)c1)NC[C@H](O)c1ccc(O)c2[nH]c(=O)ccc12 [Compound I-23] | 9.00 |  | 10.00 |  | > 30% | 
CC(Cc1cccc(CC(=O)NCCCCN(C)C(=O)CCN2CCC(OC(=O)Nc3ccccc3-c3ccccc3)CC2)c1)NC[C@H](O)c1ccc(O)c2[nH]c(=O)ccc12 (stereo partly drawn) [Compound I-22] | 9.00 |  | 10.00 |  | > 30% | 
CN(CCCCC(=O)Nc1cccc(CCNC[C@H](O)c2ccc(O)c3[nH]c(=O)ccc23)c1)C(=O)CCN1CCC(OC(=O)Nc2ccccc2-c2ccccc2)CC1 [Compound I-20] | 9.00 |  | 10.00 |  | > 30% | 
COc1cc(CNC[C@H](O)c2ccc(O)c3[nH]c(=O)ccc23)ccc1NC(=O)c1cccc(N(C)C(=O)CCN2CCC(OC(=O)Nc3ccccc3-c3ccccc3)CC2)c1 [Compound I-29] | 9.00 |  |  | No |  | 10.00
CC(Cc1cccc(CCC(=O)NCc2ccc(N(C)C(=O)CCN3CCC(OC(=O)Nc4ccccc4-c4ccccc4)CC3)cc2)c1)NC[C@H](O)c1ccc(O)c2[nH]c(=O)ccc12 (stereo partly drawn) [Compound I-91] | 9.00 |  | 9.70 |  | > 30% | 
COc1cc(NC(=O)CCCCN(C)C(=O)CCN2CCC(OC(=O)Nc3ccccc3-c3ccccc3)CC2)c(Cl)cc1CNC[C@H](O)c1ccc(O)c2[nH]c(=O)ccc12 [Compound I-19] | 9.00 |  | 10.00 |  | > 30% | 
Cc1cc(CNC[C@H](O)c2ccc(O)c3[nH]c(=O)ccc23)ccc1NC(=O)c1cccc(N(C)C(=O)CCN2CCC(OC(=O)Nc3ccccc3-c3ccccc3)CC2)c1 [Compound I-27] | 9.00 |  | 10.00 | No |  | 
